Laboratory results as given in US8410109B2, “Pharmaceutical compositions for the prevention and treatment of complex diseases and their delivery by insertable medical devices” (Resverlogix Corp., priority 2005, dated 2013).
Counter-ions that a name gives are not always drawn.

Key:
Assay type in all cases: cell-based
VCAM-1 = VCAM-1 ELISA on lysates of TNF-α stimulated HUVECs; details: Homo sapiens, HUVEC, approx. 16 hours
Experimental: (§1) Compounds were dissolved in DMSO, aliquoted, and stored at −20° C. Cultured human vascular endothelial cells (HUVECs) were seeded in 96-well plates in complete EGM-2 media (˜100 μL/well); cells were plated at ˜2-3×10^5/mL, and were from passage 8 to 12. Cells were incubated overnight. On the following day cells are stimulated with TNF-α (˜1 ng/mL) in the presence or absence of compounds dissolved in DMSO. Triplicate wells were used for each test. To establish a dose curve and an IC50, multiple concentrations in 2- to 5-fold increments were used. Cells were exposed to TNF-α and compounds for approximately 16 hours. The next day, cells were visually examined via light microscopy to score for visual signs of toxicity. Cell culture media was analyzed using an MCP-1 ELISA. Cells were refed (−100 μL/well) with 20% CellTiter 96. Aqueous One Cell Proliferation Solution (Promega), 80% EGM-2 medium. Media optical density (at 490 nm) was determined after 1 hour. Plates were aspirated and cell lysates were prepared and these lysates were tested using a VCAM-1 ELISA.
(§2) In Table 2, a positive result (+) was defined as at least 50% inhibition of the protein levels MCP-1 or VCAM-1, as determined by the ELISA.

MCP-1 = MCP-1 ELISA on culture media of TNF-α stimulated HUVECs; details: Homo sapiens, HUVEC, approx. 16 hours
Experimental: as §1, §2

[1] = system: Human coronary artery smooth muscle cells (CASMCs); test: Smooth muscle cell proliferation protocol; details: 72 hours, read-out: % Inhibition of SMC Proliferation
Experimental: Compounds were dissolved in DMSO, aliquoted, and stored at −20° C. Human coronary artery smooth muscle cells (CASMCs) were plated in 96-well plates and were grown in SmBM-2 media. After 1-2 hours, media was aspirated and replaced with serum-free ME/F12 media, except the controls. Cells were incubated for a further 48 hours. Compounds were diluted in DME/F12 containing 10% FBS. Media was aspirated from the plates and compounds in DME/F12 containing 10% FBS. Six wells were used per condition and duplicate plates were used. Cells were incubated for a further 72 hours. Media was aspirated from one set of plates; those cells were refed (˜100 μL/well) with 20% CellTiter 96 Aqueous One Cell Proliferation Solution (Promega), 80% EGM-2 medium. Media optical density (at 490 nm) was determined after 3-4 hours. In the second set of plates, serum-free DME/F12 media (20 μL) was added to each well. Part of the supernatant (50 μL) was removed and placed in an ELISA plate and was stored temporarily at 4° C. The remaining media and cells in the second set of plates were freeze-thawed for four cycles. The lysates and supernatants were mixed and centrifuged. Part of the supernatant (50 μL) was removed and placed in an ELISA plate. The Promega Cytotox assay was performed on the ELISA plates. The ratio of supernatant OD to supernatant+cell lysate OD was determined.
In Table 2, a positive result (+) was defined as at least 40% inhibition of the proliferation of SMC, as determined by the assay.

CC(C)(Sc1cc(C(C)(C)C)c(O)c(C(C)(C)C)c1)Sc1cc(C(C)(C)C)c(OC(=O)CCC(=O)O)c(C(C)(C)C)c1 [AGI1067, reference compound]
inhibition at 5 µM (VCAM-1; 5 uM): 68%
inhibition at 5 µM (MCP-1; 5 uM): 60%

O=c1cc(-c2ccc(O)cc2)oc2ncccc12 [EXAMPLE 1, 2-(4-Hydroxy-phenyl)-pyrano[2,3-b]pyridin-4-one]
inhibition at 50 µM [1]: < 40%
inhibition at 50 µM (VCAM-1): ≥ 50%
inhibition at 50 µM (MCP-1): < 50%

O=c1cc(-c2ccc(O)cc2)oc2cccnc12 [EXAMPLE 2, 2-(4-Hydroxy-phenyl)-pyrano[3,2-b]pyridin-4-one]
inhibition at 50 µM [1]: ≥ 40%
inhibition at 50 µM (VCAM-1): < 50%
inhibition at 50 µM (MCP-1): < 50%

O=c1cc(-c2ccc(O)cn2)oc2ccccc12 [EXAMPLE 11, 2-(5-Hydroxy-pyridin-2-yl)chromen-4-one]
inhibition at 50 µM [1]: < 40%
inhibition at 50 µM (VCAM-1): < 50%
inhibition at 50 µM (MCP-1): < 50%

O=c1cc(-c2ccncc2)oc2ccccc12 [EXAMPLE 12, 2-Pyridin-4-yl-chromen-4-one]
inhibition at 50 µM [1]: ≥ 40%
inhibition at 50 µM (VCAM-1): ≥ 50%
inhibition at 50 µM (MCP-1): ≥ 50%

O=c1cc(-c2ccc(O)cc2)[nH]c2ccccc12 [EXAMPLE 14, 2-(4-Hydroxy-phenyl)-1H-quinolin-4-one]
inhibition at 50 µM [1]: < 40%
inhibition at 50 µM (VCAM-1): ≥ 50%
inhibition at 50 µM (MCP-1): ≥ 50%

O=C1C=C(c2ccc(O)cc2)C(=O)c2ccccc21 [EXAMPLE 20, 2-(4-Hydroxy-phenyl)-[1,4]naphthoquinone]
inhibition at 10 µM [1]: < 40%
inhibition at 10 µM (VCAM-1): ≥ 50%
inhibition at 10 µM (MCP-1): < 50%

CN(C)Cc1ccc2c(=O)cc(-c3ccc(O)cc3)oc2n1 [EXAMPLE 26, 7-((dimethylamino)methyl-2-(4-hydroxyphenyl)-4H-pyrano[2,3-b]pyridin-4-one dihydrochloride]
inhibition at 50 µM [1]: ≥ 40%
inhibition at 50 µM (VCAM-1): < 50%
inhibition at 50 µM (MCP-1): < 50%

CN(C)CCOc1ccc(-c2cc(=O)c3cccnc3o2)cc1 [EXAMPLE 27, 2-(4-(2-(dimethylamino)ethoxy)phenyl)-4H-pyrano[2,3-b]pyridin-4-one dihydrochloride]
inhibition at 50 µM [1]: ≥ 40%
inhibition at 50 µM (VCAM-1): < 50%
inhibition at 50 µM (MCP-1): < 50%

O=c1cc(-c2ccncc2)oc2ncccc12 [EXAMPLE 30, 2-(pyridin-4-yl)-4H-pyrano[2,3-b]pyridin-4-one hydrochloride]
inhibition at 50 µM [1]: ≥ 40%
inhibition at 50 µM (VCAM-1): < 50%
inhibition at 50 µM (MCP-1): < 50%

Cc1cc(-c2cc(=O)c3cccnc3o2)cc(C)c1OCCN1CCOCC1 [EXAMPLE 31, 2-(3,5-dimethyl-4-(2-morpholinoethoxy)phenyl)-4H-pyrano[2,3-b]pyridin-4-one hydrochloride]
inhibition at 50 µM [1]: ≥ 40%
inhibition at 50 µM (VCAM-1): ≥ 50%
inhibition at 50 µM (MCP-1): < 50%

Cc1cc(-c2cc(=O)c3cc(CN4CCCC4)cnc3o2)cc(C)c1O [EXAMPLE 33, 2-(4-hydroxy-3,5-dimethylphenyl)-6-(pyrrolidin-1-ylmethyl)-4H-pyrano[2,3-b]pyridin-4-one dihydrochloride]
inhibition at 50 µM [1]: ≥ 40%
inhibition at 50 µM (VCAM-1): < 50%
inhibition at 50 µM (MCP-1): ≥ 50%

COc1cc(OC)c2c(=O)cc(-c3ccncc3)oc2c1 [EXAMPLE 34, 5,7-dimethoxy-2-(pyridin-4-yl)-4H-chromen-4-one hydrochloride]
inhibition at 50 µM [1]: ≥ 40%
inhibition at 50 µM (VCAM-1): < 50%
inhibition at 50 µM (MCP-1): < 50%

O=c1cc(-c2ccccc2)oc2ncc(CN3CCCC3)cc12 [EXAMPLE 35, 2-phenyl-6-(pyrrolidin-1-ylmethyl)-4H-pyrano[2,3-b]pyridin-4-one hydrochloride]
inhibition at 50 µM [1]: ≥ 40%
inhibition at 50 µM (VCAM-1): < 50%
inhibition at 50 µM (MCP-1): < 50%

O=c1cc(-c2ccc(F)cc2)oc2ncc(CN3CCCC3)cc12 [EXAMPLE 37, 2-(4-fluorophenyl)-6-(pyrrolidin-1-ylmethyl)-4H-pyrano[2,3-b]pyridin-4-one hydrochloride]
inhibition at 50 µM [1]: ≥ 40%
inhibition at 50 µM (VCAM-1): ≥ 50%
inhibition at 50 µM (MCP-1): < 50%

Nc1ccc(-c2cc(=O)c3cccnc3o2)cc1 [EXAMPLE 38, 2-(4-aminophenyl)-4H-pyrano[2,3-b]pyridin-4-one hydrochloride]
inhibition at 50 µM [1]: ≥ 40%
inhibition at 50 µM (VCAM-1): < 50%
inhibition at 50 µM (MCP-1): < 50%

CC(C)Oc1ccc(-c2cc(=O)c3cc(CN4CCCC4)cnc3o2)cc1 [EXAMPLE 39, 2-(4-isopropoxyphenyl)-6-(pyrrolidin-1-ylmethyl)-4H-pyrano[2,3-b]pyridinone hydrochloride]
inhibition at 50 µM [1]: ≥ 40%
inhibition at 50 µM (VCAM-1): ≥ 50%
inhibition at 50 µM (MCP-1): ≥ 50%

Cc1cc(-c2cc3ncccc3c(=O)[nH]2)cc(C)c1O [EXAMPLE 40, 7-(4-hydroxy-3,5-dimethylphenyl)-1,6-naphthyridin-5(6H)-one hydrochloride]
inhibition at 50 µM [1]: ≥ 40%
inhibition at 50 µM (VCAM-1): < 50%
inhibition at 50 µM (MCP-1): < 50%

COc1cc(O)nc2cc(-c3cc(C)c(O)c(C)c3)[nH]c(=O)c12 [EXAMPLE 41, 2-hydroxy-7-(4-hydroxy-3,5-dimethylphenyl)-4-methoxy-1,6-naphthyridin-5(6H)-one dihydrochloride]
inhibition at 50 µM [1]: ≥ 40%
inhibition at 50 µM (VCAM-1): ≥ 50%
inhibition at 50 µM (MCP-1): ≥ 50%

CNc1nc(-c2cc(C)c(O)c(C)c2)cc2ccc(CN3CCN(C)CC3)cc12 [EXAMPLE 43, 2,6-dimethyl-4-(1-(methylamino)-7-((4-methylpiperazin-1-yl)methyl)isoquinolin-3-yl)phenol trihydrochloride]
inhibition at 50 µM [1]: ≥ 40%
inhibition at 50 µM (VCAM-1): ≥ 50%
inhibition at 50 µM (MCP-1): ≥ 50%

COc1cc(OC)c2c(=O)[nH]c(-c3cc(C)c(OCCN4CCOCC4)c(C)c3)cc2c1 [EXAMPLE 48, 3-(3,5-dimethyl-4-(2-morpholinoethoxy)phenyl)-6,8-dimethoxyisoquinolin-1(2H)-one]
inhibition at 50 µM [1]: ≥ 40%
inhibition at 50 µM (VCAM-1): ≥ 50%
inhibition at 50 µM (MCP-1): < 50%

Cc1cccc2oc(-c3ccncc3)cc(=O)c12 [EXAMPLE 49, 5-methyl-2-(pyridin-yl)-4H-chromen-4-one]
inhibition at 10 µM [1]: < 40%
inhibition at 10 µM (VCAM-1): < 50%
inhibition at 10 µM (MCP-1): < 50%

CN(C)Cc1ccc2oc(-c3ccncc3)cc(=O)c2c1 [EXAMPLE 50, 6-((dimethylamino)methyl)-2-(pyridinyl)-4H-chromen-4-one]
inhibition at 50 µM [1]: ≥ 40%
inhibition at 50 µM (VCAM-1): < 50%
inhibition at 50 µM (MCP-1): < 50%

CC(C)(Sc1cc(C(C)(C)C)c(O)c(C(C)(C)C)c1)Sc1cc(C(C)(C)C)c(O)c(C(C)(C)C)c1 [Probucol, probucol, reference compound]
inhibition at 10 µM (VCAM-1): 19%
inhibition at 10 µM (MCP-1): 15%

CO[C@H]1C[C@@H]2CC[C@@H](C)[C@@](O)(O2)C(=O)C(=O)N2CCCC[C@H]2C(=O)O[C@H]([C@H](C)C[C@@H]2CC[C@@H](O)[C@H](OC)C2)CC(=O)[C@H](C)/C=C(\C)[C@@H](O)[C@@H](OC)C(=O)[C@H](C)C[C@H](C)/C=C/C=C/C=C/1C [Rapamycin, rapamycin, reference compound]
inhibition at 50 µM [1]: 43%

Oc1ccc(C=Cc2cc(O)cc(O)c2)cc1 [Resveratrol, resveratrol, reference compound]
inhibition at 50 µM (VCAM-1): 54%
inhibition at 50 µM (MCP-1): 47%

CC(=O)O[C@H]1C(=O)[C@@]2(C)[C@H]([C@H](OC(=O)c3ccccc3)[C@]3(O)C[C@H](OC(=O)[C@H](O)[C@@H](NC(=O)c4ccccc4)c4ccccc4)C(C)=C1C3(C)C)[C@]1(OC(C)=O)CO[C@@H]1C[C@@H]2O [Taxol, taxol, reference compound]
inhibition at 0.1 µM ([1]; 100 nM): 19%
